Patent publication US20160046618A1, “Cyclopropyl Fused Thiazin-2-Amine Compounds as Beta-Secretase Inhibitors and Methods of Use” (AMGEN INC., priority 2014, published 2016)

How the values were obtained:
human recombinant BACE1 = human recombinant BACE1 (Homo sapiens (Human), UniProt P56817); experiment: In vitro enzymatic BACE1 FRET assay; type: biochemical; settings: read-out: IC50 IP (μM) BACE1 enzyme
Procedure, shortened: (§1)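 Fluorescence from cleavage of a quenched peptide spanning the BACE site (50 nM) was read at 488 nm excitation, 590 nm emission. Purified enzyme (Ni-NTA) and compound reacted for one hour before a Tris stop shifted pH to neutral.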

human recombinant BACE2 = human recombinant BACE2 (Homo sapiens (Human), UniProt Q9Y5Z0); experiment: In vitro enzymatic BACE2 FRET assay; type: biochemical; settings: read-out: IC50 IP (μM) BACE2 enzyme
human recombinant BACE2, sequence (Q9Y5Z0 63-518): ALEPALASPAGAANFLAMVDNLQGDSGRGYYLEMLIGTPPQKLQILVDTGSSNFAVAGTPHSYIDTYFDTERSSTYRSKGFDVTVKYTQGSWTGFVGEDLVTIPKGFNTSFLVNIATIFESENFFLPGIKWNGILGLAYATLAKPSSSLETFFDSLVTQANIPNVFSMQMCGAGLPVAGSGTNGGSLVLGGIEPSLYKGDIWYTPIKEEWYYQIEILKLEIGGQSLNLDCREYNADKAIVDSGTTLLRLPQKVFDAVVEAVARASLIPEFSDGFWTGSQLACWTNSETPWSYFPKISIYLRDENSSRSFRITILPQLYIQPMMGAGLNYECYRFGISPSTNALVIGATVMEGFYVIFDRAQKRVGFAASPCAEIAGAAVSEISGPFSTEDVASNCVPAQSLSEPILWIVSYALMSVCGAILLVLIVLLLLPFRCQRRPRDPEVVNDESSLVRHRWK
Procedure, shortened: as §1

[1] = system: Aβ40 in conditioned medium of cells stably expressing Amyloid Precursor Protein (APP); experiment: In vitro BACE-1 cell-based assay (Aβ40 sandwich ELISA); settings: read-out: IC50 IP (μM) BACE1 cell
Procedure, shortened: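 Aβ40 in supernatants measured by time-resolved fluorescence sandwich ELISA, with pAb40 as capture and biotin-6E10 as detector antibody, each incubated at 4 °C.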

Recombinant Cat D = Recombinant Cat D (Homo sapiens (Human), UniProt P07339); experiment: In vitro enzymatic Cathepsin D (Cat D) FRET assay; type: biochemical; settings: read-out: IC50 IP (μM) CatD
Recombinant Cat D, sequence (P07339 65-412): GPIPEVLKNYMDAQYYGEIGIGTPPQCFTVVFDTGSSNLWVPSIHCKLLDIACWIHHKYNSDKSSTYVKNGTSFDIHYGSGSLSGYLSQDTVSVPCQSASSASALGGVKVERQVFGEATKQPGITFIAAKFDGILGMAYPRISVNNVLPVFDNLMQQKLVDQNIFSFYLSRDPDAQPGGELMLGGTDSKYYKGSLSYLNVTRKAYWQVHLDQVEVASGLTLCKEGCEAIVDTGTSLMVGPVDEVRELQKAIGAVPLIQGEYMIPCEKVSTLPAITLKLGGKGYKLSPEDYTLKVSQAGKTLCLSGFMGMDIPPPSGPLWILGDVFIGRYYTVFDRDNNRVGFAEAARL
Procedure, shortened: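 Fluorescence at 500 nm excitation and 580 nm emission reports cleavage of a quenched fluorophore–quencher peptide (20 nM) by CHO-expressed Cat D. Reactions ran one hour in 0.05 M citrate pH 3.5, 5 mM CHAPS, 10% DMSO final before a Tris stop raised pH to neutrality.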

human recombinant BACE1, sequence (P56817 46-501): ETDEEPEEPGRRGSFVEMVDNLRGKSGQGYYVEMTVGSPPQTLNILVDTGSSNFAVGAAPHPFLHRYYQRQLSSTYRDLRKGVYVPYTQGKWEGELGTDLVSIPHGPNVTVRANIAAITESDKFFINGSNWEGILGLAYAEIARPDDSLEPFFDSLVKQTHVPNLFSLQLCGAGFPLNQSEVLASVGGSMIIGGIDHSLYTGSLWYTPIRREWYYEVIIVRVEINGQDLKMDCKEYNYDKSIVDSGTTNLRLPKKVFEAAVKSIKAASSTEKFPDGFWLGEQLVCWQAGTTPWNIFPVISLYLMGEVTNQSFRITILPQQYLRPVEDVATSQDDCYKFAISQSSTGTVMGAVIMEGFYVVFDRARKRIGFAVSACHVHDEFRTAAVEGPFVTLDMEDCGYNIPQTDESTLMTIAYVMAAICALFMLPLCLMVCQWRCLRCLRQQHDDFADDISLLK

IC50 (human recombinant BACE1) [nM] | IC50 (human recombinant BACE2) [µM] | IC50 [1] [µM] | IC50 (Recombinant Cat D) [µM] | Compound
6.63 | 0.208 | 0.00649 | > 400 | C#CCOc1cnc2c(Nc3cnc(OC)c([C@@]4(C)N=C(N)S[C@@]5(CF)C[C@H]54)c3)nccc2n1 [Example 611, N-(5-((1S,5S,6S)-3-amino-1-(fluoromethyl)-5-methyl-2-thia-4-azabicyclo[4.1.0]hept-3-en-5-yl)-6-methoxy-3-pyridinyl)-2-(2-propyn-1-yloxy)pyrido[3,4-b]pyrazin-5-amine]
0.454 | 0.0794 | 0.00455 | 138 | C[C@]1(c2cc(NC(=O)c3cnc(OCC(F)(F)F)cn3)ccc2F)N=C(N)S[C@@]2(C(=O)NCC(F)(F)F)C[C@H]21 [Example 972, (1S,5S,6S)-3-amino-5-(2-fluoro-5-(5-(2,2,2-trifluoroethoxy)pyrazine-2-carboxamido)phenyl)-5-methyl-N-(2,2,2-trifluoroethyl)-2-thia-4-azabicyclo[4.1.0]hept-3-ene-1-carboxamide]
0.395 | 0.00543 | 0.00971 | > 133 | C#CCOc1ccc(C(=O)Nc2cc(F)c(F)c([C@@]3(C)N=C(N)S[C@@]4(S(C)(=O)=O)C[C@H]43)c2)nc1 [Example 743, N-(3-((1R,5S,6S)-3-amino-5-methyl-1-(methylsulfonyl)-2-thia-4-azabicyclo[4.1.0]hept-3-en-5-yl)-4,5-difluorophenyl)-5-(2-propyn-1-yloxy)-2-pyridinecarboxamide]
0.07 | 0.00345 | 0.000921 | 1000 | CN(C)C(=O)[C@]12C[C@H]1[C@@](C)(c1cc(NC(=O)c3cnc(OCC(F)(F)F)cn3)ccc1F)N=C(N)S2 [Example 1000, (1S,5S,6S)-3-amino-5-(2-fluoro-5-(5-(2,2,2-trifluoroethoxy)pyrazine-2-carboxamido)phenyl)-N,N,5-trimethyl-2-thia-4-azabicyclo[4.1.0]hept-3-ene-1-carboxamide]
64.6 | 0.284 | 0.131 | 803 | C#C[C@H](C)Oc1cnc(C(=O)Nc2ccc(F)c([C@@]3(C)N=C(N)S[C@@]4(COC)C[C@H]43)c2)c(C)c1 [Example 649, N-(3-((1S,5S,6S)-3-amino-1-(methoxymethyl)-5-methyl-2-thia-4-azabicyclo[4.1.0]hept-3-en-5-yl)-4-fluorophenyl)-3-methyl-5-(((1S)-1-methyl-2-propyn-1-yl)oxy)-2-pyridinecarboxamide]
2.42 | 0.0115 | 0.0123 | 1190 | C[C@]1(c2cc(Nc3nccc4nc(OCc5ncco5)cnc34)cc(F)c2F)N=C(N)S[C@@]2(S(C)(=O)=O)C[C@H]21 [Example 747, (1R,5S,6S)-5-(2,3-difluoro-5-((2-(oxazol-2-ylmethoxy)pyrido[3,4-b]pyrazin-5-yl)amino)phenyl)-5-methyl-1-(methylsulfonyl)-2-thia-4-azabicyclo[4.1.0]hept-3-en-3-amine]
2.53 | 0.0259 | 0.00325 | 1070 | Cc1nc(OCc2ncco2)cnc1C(=O)Nc1ccc(F)c([C@@]2(C)N=C(N)S[C@@]3(CF)C[C@H]32)c1 [Example 837, N-(3-((1S,5S,6S)-3-amino-1-(fluoromethyl)-5-methyl-2-thia-4-azabicyclo[4.1.0]hept-3-en-5-yl)-4-fluorophenyl)-3-methyl-5-(1,3-oxazol-2-ylmethoxy)-2-pyrazinecarboxamide]
0.266 | 0.00448 | 0.000667 | 126 | C#CCOc1cnc(C(=O)Nc2ccc(F)c([C@@]3(C)N=C(N)S[C@@]4(C#N)C[C@H]43)c2)cn1 [Example 927, N-(3-((1S,5S,6S)-3-amino-1-cyano-5-methyl-2-thia-4-azabicyclo[4.1.0]hept-3-en-5-yl)-4-fluorophenyl)-5-(2-propyn-1-yloxy)-2-pyrazinecarboxamide]
0.976 | < 0.00203 | 0.0464 | 584 | NC1=N[C@](CF)(c2cc(NC(=O)c3ccc(Cl)cn3)ccc2F)[C@@H]2C[C@]2(c2ccon2)S1 [Example 786, N-(3-((1S,5S,6S)-3-amino-5-(fluoromethyl)-1-(isoxazol-3-yl)-2-thia-4-azabicyclo[4.1.0]hept-3-en-5-yl)-4-fluorophenyl)-5-chloropicolinamide]
25.7 | 0.183 | 0.0144 | 6.84 | CC(C)(O)[C@]12C[C@H]1[C@@](C)(c1cc(Nc3ncnc4cc(C#N)cnc34)cc(F)c1F)N=C(N)S2 [Example 909, 4-((3-((1S,5S,6S)-3-amino-1-(1-hydroxy-1-methylethyl)-5-methyl-2-thia-4-azabicyclo[4.1.0]hept-3-en-5-yl)-4,5-difluorophenyl)amino)pyrido[3,2-d]pyrimidine-7-carbonitrile]
26.4 | 1.63 | 0.0238 | 2050 | COC[C@]12C[C@H]1[C@@](C)(c1cc(NC(=O)c3cnc(OC4COC4)cn3)ccc1F)N=C(N)S2 [Example 1067, N-(3-((1S,5S,6S)-3-amino-1-(methoxymethyl)-5-methyl-2-thia-4-azabicyclo[4.1.0]hept-3-en-5-yl)-4-fluorophenyl)-5-(oxetan-3-yloxy)pyrazine-2-carboxamide]
0.338 | < 0.00203 | 0.0028 | 792 | CN(C)C(=O)[C@]12C[C@H]1[C@@](CF)(c1cc(NC(=O)c3ccc(Cl)cn3)ccc1F)N=C(N)S2 [Example 790, (1S,5S,6S)-3-amino-5-(5-(((5-chloro-2-pyridinyl)carbonyl)amino)-2-fluorophenyl)-5-(fluoromethyl)-N,N-dimethyl-2-thia-4-azabicyclo[4.1.0]hept-3-ene-1-carboxamide]
9.2 | 0.0257 | 0.104 | 148 | COC[C@@]12SC(N)=N[C@](C)(c3cc(Nc4ncnc5cc(C#N)cnc45)ccc3F)[C@@H]1C2(F)F [Example 709, 4-((3-((1S,5S,6R)-3-amino-7,7-difluoro-1-(methoxymethyl)-5-methyl-2-thia-4-azabicyclo[4.1.0]hept-3-en-5-yl)-4-fluorophenyl)amino)pyrido[3,2-d]pyrimidine-7-carbonitrile]
10 | 0.0199 | 0.104 | 21 | NC1=N[C@](CF)(c2cc(NC(=O)c3ccc(Cl)cn3)ccc2F)[C@H]2C3CSC[C@@]32S1 (stereo partly drawn) [Example 962, N-(3-((4S,4aR,7aS)-2-amino-4-(fluoromethyl)-4a,4b,5,7-tetrahydro-4H-thieno[3′,4′:2,3]cyclopropa[1,2-e][1,3]thiazin-4-yl)-4-fluorophenyl)-5-chloropicolinamide]
6.38 | 0.0642 | 0.014 | 1520 | C#CCOc1cnc2c(Nc3cc(F)c(F)c([C@@]4(C)N=C(N)S[C@@]5(COC)C[C@H]54)c3)nccc2c1 [Example 733, N-(3-((1S,5S,6S)-3-amino-1-(methoxymethyl)-5-methyl-2-thia-4-azabicyclo[4.1.0]hept-3-en-5-yl)-4,5-difluorophenyl)-3-(2-propyn-1-yloxy)-1,7-naphthyridin-8-amine]
